Values quoted from earlier work, collected in patent US12064484B2, “Compositions for introducing RNA into cells” (ETHRIS GMBH, priority 2013, dated 2024).

Test system: cell culture
Conditions: cholesterol-polyamine carbamates

## CC(C)CCCC(C)C1CCC2C3CC=C4CC(OC(=O)NCCNCCCNCCN)CCC4(C)C3CCC12C (centres unmarked) [ethyl/propyl/ethyl]
  reporter gene expression (beta galactosidase plasmid DNA): three- to tenfold less efficient

## CC(C)CCCC(C)C1CCC2C3CC=C4CC(OC(=O)NCCCNCCCCNCCCN)CCC4(C)C3CCC12C (centres unmarked) [propyl/butyl/propyl]
  reporter gene expression (beta galactosidase plasmid DNA): by far the highest reporter gene expression
